Results from the supplement of paper PMC8671470.

Key:
Settings in all cases: 72 h
[1] = test system: BV-173
How it was run: (§1)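 The IC50 was read from log-logistic dose–response fits. Fifteen myeloid leukaemia lines were exposed for 72 h at 37 °C with 5% CO2 to five tenfold doses from 1 to 10,000 nM in duplicate. ATP luminescence, normalised to vehicle and to a 10 µM positive control, was fitted with four parameters.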

[2] = test system: HEL
How it was run: as §1

[3] = test system: HL-60
How it was run: as §1

[4] = test system: K-562
How it was run: as §1

[5] = test system: KCL-22
How it was run: as §1

[6] = test system: KG-1
How it was run: as §1

[7] = test system: KU-812
How it was run: as §1

[8] = test system: LAMA-84
How it was run: as §1

[9] = test system: ML-2
How it was run: as §1

[10] = test system: MOLM-13
How it was run: as §1

[11] = test system: MV4-11
How it was run: as §1

[12] = test system: Mono-Mac-6
How it was run: as §1

[13] = test system: NOMO-1
How it was run: as §1

[14] = test system: SHI-1
How it was run: as §1

[15] = test system: THP-1
How it was run: as §1

[16] = test system: BV-173; test: cell viability (% survival relative to DMSO control, bortezomib = 0%); higher = less cytotoxic
How it was run: (§2)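 Percent survival figures are means of duplicate wells. They were obtained by CellTiter-Glo luminescence after 10 AML and 5 CML cell lines spent 72 h at 37 °C with 5% CO2 in 384-well plates with compounds at 1, 10, 100, 1000 or 10000 nM. Vehicle was set to 100% and a 10 µM positive control to 0%.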

[17] = test system: HEL; test: as above
How it was run: as §2

[18] = test system: HL-60; test: as above
How it was run: as §2

[19] = test system: K-562; test: as above
How it was run: as §2

[20] = test system: KCL-22; test: as above
How it was run: as §2

[21] = test system: KG-1; test: as above
How it was run: as §2

[22] = test system: KU-812; test: as above
How it was run: as §2

[23] = test system: LAMA-84; test: as above
How it was run: as §2

[24] = test system: ML-2; test: as above
How it was run: as §2

[25] = test system: MOLM-13; test: as above
How it was run: as §2

[26] = test system: MV4-11; test: as above
How it was run: as §2

[27] = test system: Mono-Mac-6; test: as above
How it was run: as §2

[28] = test system: NOMO-1; test: as above
How it was run: as §2

[29] = test system: SHI-1; test: as above
How it was run: as §2

[30] = test system: THP-1; test: as above
How it was run: as §2

N#Cc1ccc(N(Cc2ccc(Br)cc2)n2cnnc2)cc1 [YM511]
Settings | IC50 (cell viability) [µM]
[1] | > 10
[2] | > 10
[3] | > 10
[4] | > 10
[5] | > 10
[6] | > 10
[7] | > 10
[8] | > 10
[9] | > 10
[10] | > 10
[11] | > 10
[12] | > 10
[13] | > 10
[14] | > 10
[15] | > 10

cell viability [%]
Settings | 1 nM | 10 nM | 100 nM | 1000 nM | 10000 nM
[16] | 92 | 95.3 | 101 | 107 | 100
[17] | 113 | 104 | 97.7 | 118 | 104
[18] | 104 | 76.2 | 102 | 117 | 101
[19] | 107 | 104 | 97 | 115 | 99.3
[20] | 111 | 97.9 | 106 | 102 | 99.6
[21] | 99.3 | 105 | 90.2 | 118 | 92.1
[22] | 95.9 | 99.6 | 89.3 | 102 | 92.7
[23] | 106 | 100 | 93.4 | 101 | 103
[24] | 105 | 108 | 106 | 107 | 98.5
[25] | 131 | 99.5 | 91.6 | 105 | 94.5
[26] | 98.9 | 93.6 | 115 | 106 | 98.9
[27] | 110 | 102 | 97 | 106 | 93.9
[28] | 103 | 104 | 98.4 | 104 | 96.2
[29] | 117 | 103 | 95.7 | 103 | 102
[30] | 99.3 | 103 | 93.4 | 105 | 91.9
